# Reference: patent US20200121716A1, “Method for Inhibiting Both Glycolysis and Glutamine Metabolism in Cells and Use Thereof” (priority 2017, published 2020)
# Like-named read-outs stand apart in the source and are kept apart here.
# Experiments:
# [1] = cited from earlier work
# fly maggot eggs = assay: meat slice preservative experiment
# [2] = tested on: L-glutamate dehydrogenation; assay: spontaneous fermentation of flour paste mixed with L-glutamate; assay type: cell-based; conditions: for level of water absorbed on dry test paper: paper inserted 30 minutes, without reducing agent 5 mm
# glutamine metabolism = assay: spontaneous fermentation of flour paste mixed with glutamine; assay type: cell-based; conditions: about 25 °C, one hour, without reducing agent 8 to 9
# bacteria = assay: preservative effect on lettuce leaf, loofah juice and celery leaf in water
# fermenting microorganism = assay: flour fermentation experiment; assay type: cell-based; conditions: second day of fermentation; without sodium selenite pH 4-5
# Experimental: Two portions of flour (50 g each) were used for fermentation experiments. Each portion was mixed with an equal amount (about 50 g) of water, and to one of the mixtures sodium selenite having about 200 μg selenium was added. […] The same phenomenon was observed over 20 days of continuous monitoring (the contrast between flour fragrance and the acidic odor). As measured by pH test paper, the flour with sodium selenite on the second day of fermentation was slightly alkaline with a pH of 7-8, while the flour without sodium selenite was acidified after fermentation with a pH of 4-5. […] Since tumor cells and anaerobia cells have the same steps and processes of chemical reactions in glycolysis, it is believed that tumor cells would either stop metabolism and die, or change the metabolic pattern and turn into normal cells.
# tumors = assay: administration of reducing agents in cycles to tumor patients; assay type: in vivo, human; conditions: advanced lung cancer, 15-month course with bevacizumab, before reducing agents
# [3] = trials on patients with gout, urine pH; assay type: in vivo, human
# anaerobia = assay: spontaneous anaerobic fermentation of flour paste sealed with rapeseed oil; assay type: cell-based; conditions: about 7 months spontaneous fermentation, air blocked with rapeseed oil; amounts added as
# [4] = tested on: anaerobic bacteria or facultative anaerobic bacteria; assay type: cell-based
# [5] = spraying on brown spots on the face; assay type: in vivo, human; conditions: 5 ppm sodium selenite solution and randomly 3% aqueous sodium formate solution
# [6] = trials on patients with gastric ulcer or gastrointestinal inflammation; assay type: in vivo, human; conditions: about 30 of about 80 tumor patients having gastrointestinal inflammation
# [7] = evening of same day, bare meat densely covered
# [8] = next morning, maggots appeared on untreated slice
# [9] = after 3 days, sodium formate 1 g 3 times per day, sodium oxalate 1 g per day
Compound,fly maggot eggs on the meat slice (fly maggot eggs),level of water absorbed on dry test paper [2],fly maggot eggs on the meat slice (fly maggot eggs; [7]),maggots on the meat slice (fly maggot eggs; [8]),pH value of the gas in the beaker (wet pH paper) (glutamine metabolism),other results
[Se] [selenium],–,–,–,–,–,safe dose ([1]; oral intake): no more than 400 mg per day
sodium sulfide,about 5,–,–,–,–,maggots on the meat slice (fly maggot eggs): no maggot was hatched
selenium dioxide,–,about 9 mm,about 5,no maggot was hatched,about 7.5,–
O=[Se](O)O [sodium selenite],5,9 mm,–,–,about 7.5,"diameter of brown rot spot on lettuce leaf (bacteria; fifth day, 180 μg selenium in 80 g tap water, 15 to 20 °C, without: about 6 mm): about 1 mm; diameter of spot on loofah juice (bacteria; fifth day, with sodium selenite): about 3 mm; day a spot first appeared on the surface of loofah juice (bacteria; loofah juice with sodium selenite, without: about 3 mm spot on second day): 3 days; pH of flour by pH test paper (fermenting microorganism): 7-8; pH value of the gas in the beaker (wet pH paper) ([2]; one hour, without sodium selenite 8): about 7.5; toxic dose ([1]; human, oral administration, publicly reported): 400 mg per day"
O=CO [formic acid],about 5,–,–,–,–,maggots on the meat slice (fly maggot eggs): no maggot was hatched
bevacizumab,–,–,–,–,–,CY211 index during course (tumors): up to 28
O=C([O-])C(=O)[O-].[Na+].[Na+] [sodium oxalate],about 5,about 9 mm,–,–,about 7.5,"pain feeling of gout [3, 9]: disappeared; morning urine pH by test paper ([3]; gout patients, after 3 days, sodium formate 1 g 3 times per day, sodium oxalate 1 g per day, 5.5 to 6 during onset): 7; pH of urine tested first in the morning ([3]; patients with frequent gout, 1 g per day): increased pH; maggots on the meat slice (fly maggot eggs): no maggot was hatched"
N[C@@H](CS)C(=O)O [L-cysteine],–,–,–,–,–,aqueous solution above the settled flour (anaerobia): clear and transparent
O=C[O-].[Na+] [sodium formate],–,about 9 mm,about 5,no maggot was hatched,about 7.5,"pain feeling of gout [3, 9]: alleviated and even disappeared; urine pH, hospital urine test ([3]; patient with a tumor, 1 g per day for two weeks): 8; pH of water in the glutinous rice [4]: slightly decreased from about 7; pH value of water in the glutinous rice [4]: about 6; colored spots in more than 10 people [5]: faded or disappeared colored spots; gastrointestinal discomfort [6]: alleviated gastrointestinal discomfort"
calcium formate,–,about 9 mm,about 5,no maggot was hatched,about 7.5,effect on pH of water in the glutinous rice [4]: same effect
O=C(O)C(=O)O [oxalic acid],–,about 9 mm,about 5,no maggot was hatched,about 7.5,aqueous solution above the settled flour (anaerobia): clear and transparent
